Results as given in patent US10801077B2, “Influenza A virus variants” (Vertex Pharmaceuticals Incorporated, priority 2014, dated 2020).

Key:
[1] = tested on: A/Puerto Rico/8/34, A/California/07/2009, A/Wisconsin/67/2005 influenza virus variants; type: cell-based
PR8-Wild Type = test: microbe, parasite or virus in culture; type: cell-based, influenza A virus
PR8-PB2-F323L = type: cell-based, influenza A virus
PR8-PB2-S324N = type: cell-based, influenza A virus
PR8-PB2-S324R = type: cell-based, influenza A virus
PR8-PB2-F325V = type: cell-based, influenza A virus
PR8-PB2-H357Q = type: cell-based, influenza A virus
PR8-PB2-K376Q = type: cell-based, influenza A virus
PR8-PB2-K376R = type: cell-based, influenza A virus
PR8-PB2-M431I = type: cell-based, influenza A virus

With `CC(C)(C)[C@@H](CC(=O)O)Nc1nc(-c2c[nH]c3ncc(F)cc23)ncc1F` [Compound 1] the “reduction in sensitivity to Compound 1” value [1] was over 10 fold, the “shift in Compound 1 EC50” value [1] was 10- to 1720 fold and the “shifts in sensitivity to Compound 1” value [1] was “greater than 10 fold”. The “Sensitivity to Compound 1 Fold EC50 Shift” value (PR8-Wild Type) was 1.0 fold, the EC50 (PR8-Wild Type; Influenza A virus, PR8, MDCK, read-out: Sensitivity to Compound 1 EC50 (SD)) was 1.3 nM and the “Sensitivity to Compound 1 Fold EC50 Shift” value (PR8-PB2-F323L) was 8.5 fold. The “Sensitivity to Compound 1 Fold EC50 Shift” value (PR8-PB2-S324N) was 31 fold, the “Sensitivity to Compound 1 Fold EC50 Shift” value (PR8-PB2-S324R) was 33 fold and the “Sensitivity to Compound 1 Fold EC50 Shift” value (PR8-PB2-F325V) was 3.5 fold. The “Sensitivity to Compound 1 Fold EC50 Shift” value (PR8-PB2-H357Q) was 15 fold, the “Sensitivity to Compound 1 Fold EC50 Shift” value (PR8-PB2-K376Q) was 408 fold and the “Sensitivity to Compound 1 Fold EC50 Shift” value (PR8-PB2-K376R) was 231 fold. The “Sensitivity to Compound 1 Fold EC50 Shift” value (PR8-PB2-M431I) was 131 fold.
